{"source": "patent US8088570B2", "about": "“Method for screening an agent for preventing or ameliorating wrinkles” (Kao Corporation, priority 2006, dated 2012)", "key": {"K16 protein [1]": {"tested_on": "K16 protein", "assay": "Epidermal K16 protein level by western blotting, wrinkle formation test (Example 2)", "format": "in vivo, hairless mice", "settings": "4% CLP applied with UV irradiation, 12 weeks", "method": "(§1) After the dorsal skins collected from the mice were cooled on ice immediately after treatment in distilled water at 60° C. for 1 minute, epidermal portions were separated from the dermis with a spatula. The obtained epidermal portions (containing the stratum corneum) were homogenized in a urea buffer (8 M urea, 50 mM tris-HCl (pH 7.6), 100 mM mercaptoethanol, 1 mM dithiothreitol, and protease inhibitors) to extract proteins. Insoluble matter was removed by centrifugation and supernatant collection. Following the measurement of the total protein concentration (RD DC Protein Assay Kit, Bio-Rad Laboratories Inc.), samples were prepared at the same concentrations. The samples were supplemented with laemmli buffer and treated at 90 to 100° C. for 3 to 5 minutes to give samples for electrophoresis. The samples were electrophoresed on 5 to 15% gradient acrylamide gel or 12.5% acrylamide gel (Bio Rad) at 60 V for 3 hours and blotted onto a nitrocellulose membrane at 250 mA for 1 hour under ice cooling. […] Labeling was performed by using peroxidase-labeled secondary antibodies, and color was developed by chemiluminescence method (ECL-Plus, Amersham Pharmacia Biotech) and detected with X-ray films. Quantification was performed with Adobe Photoshop (Adobe Systems Incorporated). […]\n(§2) Moreover, the quantification of keratin proteins was performed by western blotting in the same way as in Example 1."}, "K5 protein [2]": {"tested_on": "K5 protein", "assay": "Epidermal K5 protein level by western blotting in wrinkle model mice (Example 1)", "format": "in vivo, hairless mice", "settings": "5 w/v % CLP applied 6 weeks after 9 weeks of UV irradiation", "method": "(§3) Six-week-old hairless mice of the same species as in Reference Example 1 were exposed for 9 consecutive weeks to ultraviolet rays at a dose of 470 J/m^2 during the 0th (at the start of irradiation) to first week, at a dose of 530 J/m^2 during the first to second week, at a dose of 600 J/m^2 during the second to third week, and at a dose of 670 J/m^2 during the fourth and subsequent weeks, to prepare chronically ultraviolet-irradiated mice (wrinkle model mice). Then, 100 μL of 5 w/v % CLP solution (50 vol % ethanol solution) was applied once […] and five times a week for 6 consecutive weeks to the whole dorsal skin of each of the mice to examine changes in epidermal keratin protein levels. For controls, 50 vol % ethanol solution (solvent control) and unirradiated age-matched mice (unirradiated mice) were used. Each of the groups comprised 3 mice.\n(§4) After the dorsal skins collected from the mice were cooled on ice immediately after treatment in distilled water at 60° C. for 1 minute, epidermal portions were separated from the dermis with a spatula. […] Labeling was performed by using peroxidase-labeled secondary antibodies, and color was developed by chemiluminescence method (ECL-Plus, Amersham Pharmacia Biotech) and detected with X-ray films. Quantification was performed with Adobe Photoshop (Adobe Systems Incorporated)."}, "K14 protein [3]": {"tested_on": "K14 protein", "assay": "Epidermal K14 protein level by western blotting, wrinkle formation test (Example 2)", "format": "in vivo, hairless mice", "settings": "4% CLP applied with UV irradiation, 12 weeks", "method": "as §1, §2"}, "[4]": {"tested_on": "chronically ultraviolet-irradiated mice (wrinkle formation model)", "assay": "Wrinkle-improving effect of CLP, visual observation score in chronically ultraviolet-irradiated hairless mice (Reference Example 1)", "format": "in vivo, hairless mice (Hr-1-ICR)", "settings": "5 w/v % CLP, 100 μL on dorsal skin for 6 weeks after 12 weeks of UV irradiation", "excerpt": "An experimental system of the chronic and continuous exposure of hairless mice to ultraviolet rays of minimum erythema dose (hereinafter, referred to as 1 MED) or lower (J. Pharm. Pharmacol. 1992; 44: 379-386; and Photochem. Photobiol., 1991; 53: 109-112) was used as a wrinkle formation model to perform a test of wrinkle improvement of 1-carbamimidoyl-L-proline (CLP) in vivo.\nThe mice used were hairless mice (Hr-1-ICR) produced from crossing between Hr-1 (Skh-1) hairless mice and ICR mice. Toshiba SE20 lamps were used as an ultraviolet source, and ultraviolet doses used were measured with UV-RADIOMETER (UVR-305/365D, Eisai). The 6- to 10-week-old hairless mice were exposed once a day and five times a week for 12 consecutive weeks to ultraviolet rays of 1 MED or lower, that is, at a dose of 470 J/m^2 during the 0th (at the start of irradiation) to first week, at a dose of 530 J/m^2 during the first to second week, at a dose of 600 J/m^2 during the second to third week, and at a dose of 670 J/m^2 during the fourth and subsequent weeks, to prepare chronically ultraviolet-irradiated mice. […]\nThe degree of wrinkles formed on the dorsal skins of the mice was determined at the start of CLP application and on the 6th week according to a visual observation score with reference to the documents described above. The score was evaluated on a scale of 7 using the scores below and mean values. […]"}, "K1 protein [5]": {"tested_on": "K1 protein", "assay": "Epidermal K1 protein level by western blotting, wrinkle formation test (Example 2)", "format": "in vivo, hairless mice", "settings": "4% CLP applied with UV irradiation, 12 weeks", "method": "as §1, §2"}, "K16 protein [6]": {"tested_on": "K16 protein", "assay": "Epidermal K16 protein level by western blotting in wrinkle model mice (Example 1)", "format": "in vivo, hairless mice", "settings": "5 w/v % CLP applied 6 weeks after 9 weeks of UV irradiation; compared with solvent control and unirradiated mice", "method": "as §3, §4"}, "K1 protein [7]": {"tested_on": "K1 protein", "assay": "Epidermal K1 protein level by western blotting in wrinkle model mice (Example 1)", "format": "in vivo, hairless mice", "settings": "5 w/v % CLP applied 6 weeks after 9 weeks of UV irradiation", "method": "as §3, §4"}, "K10 protein [8]": {"tested_on": "K10 protein", "assay": "Epidermal K10 protein level by western blotting, wrinkle formation test (Example 2)", "format": "in vivo, hairless mice", "settings": "4% CLP applied with UV irradiation, 12 weeks", "method": "as §1, §2"}, "K14 protein [9]": {"tested_on": "K14 protein", "assay": "Epidermal K14 protein level by western blotting in wrinkle model mice (Example 1)", "format": "in vivo, hairless mice", "settings": "5 w/v % CLP applied 6 weeks after 9 weeks of UV irradiation", "method": "as §3, §4"}, "[10]": {"tested_on": "hairless mice exposed to ultraviolet rays (wrinkle formation)", "assay": "Inhibitory effect of CLP on wrinkle formation, visual observation score (Example 2)", "format": "in vivo", "settings": "4% (Wt/Vol %) CLP, 100 μL applied immediately after each UV irradiation, 12 weeks", "method": "The degree of wrinkles formed on the dorsal skins of the mice was determined at the start of CLP application and on the 6th week according to a visual observation score with reference to the documents described above. The score was evaluated on a scale of 7 using the scores below and mean values.\nScore 0: no wrinkle observed\nScore 1: wrinkles slightly observed\nScore 2: wrinkles observed\nScore 3: wrinkles remarkably observed\nThe same 6- to 8-week-old hairless mice as in Reference Example 1 were used and exposed to ultraviolet rays of 1 MED (minimum erythema dose) or lower. Immediately after the ultraviolet irradiation, procedures for applying 100 μL of 4% (Wt/Vol %) CLP solution (solvent: 30 Vol/Vol % ethanol/water solution) or vehicle control to the whole dorsal skin of each of the mice were performed once a day and five times a week for 12 consecutive weeks. The irradiation dose was 470 J/m^2 during the 0th (at the start of irradiation) to first week, 530 J/m^2 during the first to second week, 600 J/m^2 during the second to third week, and 670 J/m^2 during the fourth and subsequent weeks. Each of the groups comprised 10 to 12 mice.\nThe degree of wrinkles formed on the dorsal skins of the mice was determined after 12 weeks from the start of ultraviolet irradiation according to the visual observation score in the same way as in Reference Example 1."}, "K5 protein [11]": {"tested_on": "K5 protein", "assay": "Epidermal K5 protein level by western blotting, wrinkle formation test (Example 2)", "format": "in vivo, hairless mice", "settings": "4% CLP applied with UV irradiation, 12 weeks", "method": "as §1, §2"}, "K6 protein [12]": {"tested_on": "K6 protein", "assay": "Epidermal K6 protein level by western blotting in wrinkle model mice (Example 1)", "format": "in vivo, hairless mice", "settings": "5 w/v % CLP applied 6 weeks after 9 weeks of UV irradiation; compared with solvent control and unirradiated mice", "method": "as §3, §4"}, "K10 protein [13]": {"tested_on": "K10 protein", "assay": "Epidermal K10 protein level by western blotting in wrinkle model mice (Example 1)", "format": "in vivo, hairless mice", "settings": "5 w/v % CLP applied 6 weeks after 9 weeks of UV irradiation", "method": "as §3, §4"}, "K6 protein [14]": {"tested_on": "K6 protein", "assay": "Epidermal K6 protein level by western blotting, wrinkle formation test (Example 2)", "format": "in vivo, hairless mice", "settings": "4% CLP applied with UV irradiation, 12 weeks", "method": "as §1, §2"}}}
{"molecule": "N=C(N)N1CCC[C@H]1C(=O)O", "note": "[CLP, 1-carbamimidoyl-L-proline]", "values": [{"measurement": "K16 protein level compared with vehicle control group", "setting": "K16 protein [1]", "value": "significantly decreased"}, {"measurement": "epidermal K5 protein level", "setting": "K5 protein [2]", "value": "hardly changed"}, {"measurement": "K14 protein level compared with vehicle control group", "setting": "K14 protein [3]", "value": "no significant difference"}, {"measurement": "visual observation score of wrinkles, 6th week compared with at the start", "setting": "[4]", "value": "significantly decreased"}, {"measurement": "visual observation score of wrinkles, compared with control group on the 6th week", "setting": "[4]; control 30 vol % ethanol", "value": "significantly lower"}, {"measurement": "K1 protein level compared with vehicle control group", "setting": "K1 protein [5]", "value": "no significant difference"}, {"measurement": "epidermal K16 protein level", "setting": "K16 protein [6]", "value": "decreased to unirradiated levels"}, {"measurement": "epidermal K1 protein level", "setting": "K1 protein [7]", "value": "No significant difference"}, {"measurement": "K10 protein level compared with vehicle control group", "setting": "K10 protein [8]", "value": "no significant difference"}, {"measurement": "epidermal K14 protein level", "setting": "K14 protein [9]", "value": "No significant difference"}, {"measurement": "wrinkle formation (visual observation score) compared with vehicle control group", "setting": "[10]", "value": "significant inhibitory effect"}, {"measurement": "K5 protein level compared with vehicle control group", "setting": "K5 protein [11]", "value": "no significant difference"}, {"measurement": "epidermal K6 protein level", "setting": "K6 protein [12]", "value": "decreased to unirradiated levels"}, {"measurement": "epidermal K10 protein level", "setting": "K10 protein [13]", "value": "No significant difference"}, {"measurement": "K6 protein level compared with vehicle control group", "setting": "K6 protein [14]", "value": "significantly decreased"}]}
